Here are results for 43 molecules from patent publication US8088806B2 (Achillion Pharmaceuticals, Inc., priority 2005, dated 2012).

Structures are written as SMILES. pEC50: −log10 of the molar value.

One assay concerns HCV replicon. In words: Replicon based assay of HCV replication inhibition (NPT ELISA). In kind it is cell-based, Hepatitis C virus. The settings on record: Hepatitis C virus, replicon based assay of HCV replication inhibition; Table II; read-out: Activity. An outline of the steps: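 Huh-7 cells carrying a bicistronic HCV replicon (neo, EMCV-IRES-driven NS3–NS5B) treated overnight after seeding with usually 6 concentrations, 10 to 0.03 micromolar, for three days at 37° C without G418. Replication read as NPT level by captured ELISA; matched-DMSO wells and interferon alpha as controls.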
Background: A replicon is a self-replicating genome or part of one, used to study replication in cells.
For the molecule `CCCCCCCOc1ccc(Nc2nc(-c3ccc(C(=O)N(C)C)nc3)cs2)cc1` [compound 457, 5-(2-(4-(heptyloxy)phenylamino)thia-zol-4-yl)-N,N-dimethylpyridine-2-carboxamide], the pEC50 is 5.00 to 6.00.
Take `CCCCCCCCOc1ccc(Nc2nc(-c3ccc(O)cc3)cs2)cc1` [compound 458, 4-(2-(4-(octyloxy)phenylamino)thia-zol-4-yl)phenol]: the pEC50 is greater than 6.00.
On the same count and under the same terms, the same measure for `CCCCCOc1ccc(Nc2nc(-c3ccc(Br)nc3)cs2)cc1C(F)(F)F` [compound 459, 4-(6-bromopyridin-3-yl)-N-(3-(trifluoromethyl)-4-(pentyloxy)phenyl)thiazol-2-amine]: greater than 6.00; for `CCCCCOc1ccc(Nc2nc(-c3ccc(Cl)nc3)cs2)cc1C(F)(F)F` [compound 460, 4-(6-chloropyridin-3-yl)-N-(3-(trifluoromethyl)-4-(pentyloxy)phenyl)thiazol-2-amine]: greater than 6.00.
Still for that read-out and setting: the same measure for `CCCCCCCCOc1ccc(Nc2nc(-c3ccc(OCC(=O)OCC)cc3)cs2)cc1` [compound 461, ethyl 2-(4-(2-(4-(octyloxy)phenylamino)thia-zol-4-yl)phenoxy)acetate]: greater than 6.00; for `CCCCCCCCOc1ccc(Nc2nc(-c3ccc(OCC(=O)O)cc3)cs2)cc1` [compound 462, 2-(4-(2-(4-(octyloxy)phenylamino)thia-zol-4-yl)phenoxy)acetic acid]: greater than 6.00.
On the same count and under the same terms, the same measure for `CCCCCCCCOc1ccc(Nc2nc(-c3ccc(NC)nc3)cs2)cc1` [compound 463, 5-(2-(4-(octyloxy)phenylamino)thia-zol-4-yl)-N-meethylpyridin-2-amine]: greater than 6.00; for `CCCCCCCCOc1ccc(Nc2nc(O)cs2)cc1` [compound 464, 2-(4-(octyloxy)phenylamino)thia-zol-4-ol]: 5.00 to 6.00; for `CC(=O)OCCCCCCN(C)c1ccc(Nc2nc(-c3cccnc3)cs2)cc1C(F)(F)F` [compound 465]: 5.00 to 6.00.
For `CC(=O)OCCCCCCN(C)c1ccc(Nc2nc(-c3ccc(C)nc3)cs2)cc1C(F)(F)F` [compound 466], the pEC50 is 5.00 to 6.00.
Still for that read-out and setting: the same measure for `CC(=O)OCCCCCCN(C)c1ccc(Nc2nc(-c3ccc(F)cc3)cs2)cc1C(F)(F)F` [compound 467]: less than 5.00; for `CCCCCCCCOc1ccc(Nc2nc(-c3ccc(C(=O)N(C)C)nc3)cs2)cn1` [compound 468, 5-(2-(6-(octyloxy)pyridin-3-ylamino)thiazol-4-yl)-N,N-dimethylpyridine-2-carboxamide]: 5.00 to 6.00.
As to `CCCCCCCCOc1ccc(Nc2nc(-c3cccnc3)cs2)cn1` [compound 469, 6-(octyloxy)-N-0(4-(pyridin-3-yl)thiazol-2-yl)pyridin-3-amine], the pEC50 is 5.00 to 6.00.
Still for that read-out and setting: next, `CN(CCCCCCO)c1ccc(Nc2nc(-c3ccc(F)cc3)cs2)cc1C(F)(F)F` [compound 470, 6-(N-(4-(4-(4-fluorophenyl)thiazol-2-ylamino)-2-(trifluoromethyl)phenyl)-N-methylamino)hexan-1-ol]: 5.00 to 6.00; `CCCCCCCCOc1ccc(Nc2nc(-c3ccc(C)nc3)cs2)cn1` [compound 473, N-(4-(6-methylpyridin-3-yl)thiazol-2-yl)-6-(octyloxy)pyridin-3-amine]: greater than 6.00.
Consider `CCCCCCCCOc1ccc(Nc2nc(-c3ccc(F)c(F)c3)cs2)cn1` [compound 474, N-(4-(3,4-difluorophenyl)thiazol-2-yl)-6-(octyloxy)pyridin-3-amine], for which the pEC50 was greater than 6.00.
Turning to `CCCCCCCCOc1ccc(Nc2nc(-c3ccc(F)cc3)cs2)cn1` [compound 475, N-(4-(4-fluorophenyl)thiazol-2-yl)-6-(octyloxy)pyridin-3-amine], the pEC50 is greater than 6.00.
Consider `CCCCCCCCOc1ccc(Nc2nc(-c3cccnc3)cs2)cc1C(F)(F)F` [compound 476, N-(3-(trifluoromeethyl)-4-(octyloxy)phenyl)-4-(pyridin-3-yl)thiazol-2-amine], for which the pEC50 is greater than 6.00.
With `CCCCCCCCN(C)c1ccc(Nc2nc(-c3cccnc3)cs2)cc1C(F)(F)F` [compound 477, 2-(trifluoromethyl)-N^1-methyl-N^1-octyl-N^4-(4-(pyridin-3-yl)thiazol-2-yl)benzene-1,4-diamine], the pEC50 was greater than 6.00.
For `O=C(Nc1ccc(OCc2ccccc2)cc1)Nc1nc(-c2ccc(Cl)cc2)cs1` [compound 478, 1-(4-(benzyloxy)phenyl)-3-(4-(4-chlorophenyl)thiazol-2-yl)urea], the pEC50 was 5.00 to 6.00.
Still for that read-out and setting: the same measure for `CCCCCCCCOc1ccc(Nc2nc(Cl)cs2)cc1` [compound 479, 4-chloro-N-(4-(octyloxy)phenyl)thiazol-2-amine]: greater than 6.00; for `CC/C=C\CCCCOc1ccc(Nc2nc(-c3cccnc3)cs2)cc1C(F)(F)F` [compound 480, N-(4-((Z)-oct-5-enyloxy)-3-(trifluoromethyl)phenyl)-4-(pyridin-3-yl)thiazol-2-amine]: greater than 6.00.
As to `CC/C=C\CCCCOc1ccc(Nc2nc(-c3ccc(C)nc3)cs2)cc1C(F)(F)F` [compound 481, N-(4-((Z)-oct-5-enyloxy)-3-(trifluoromethyl)phenyl)-4-(6-methylpyridin-3-yl)thiazol-2-amine], the pEC50 was greater than 6.00.
Same read-out and setting: next, `CC/C=C\CCCCOc1ccc(Nc2nc(-c3ccc(F)cc3)cs2)cc1C(F)(F)F` [compound 482, N-(4-((Z)-oct-5-enyloxy)-3-(trifluoromethyl)phenyl)-4-(4-fluorophenyl)thiazol-2-amine]: greater than 6.00; `CCCCCCCc1ccc(Nc2nc(-c3cccnc3)cs2)cc1` [compound 483, N-(4-heptylphenyl)-4-(pyridin-3-yl)thiazol-2-amine]: greater than 6.00; `CCCCCOc1ccc(Nc2nc3c(s2)Cc2ccccc2-3)cc1C(F)(F)F` [compound 484, N-(3-(trifluoromethyl)-4-(pentyloxy)phenyl)-8H-indeno[1,2-d]thiazol-2-amine]: greater than 6.00.
On to `CCCCCCCCOc1ccc(Nc2nc3c(s2)Cc2ccccc2-3)cc1` [compound 485, N-(4-(octyloxy)phenyl)-8H-indeno[1,2-d]thiazol-2-amine], for which the pEC50 is greater than 6.00.
The same measure, in the same setting: the same measure for `CCCCCOc1ccc(Nc2nc(-c3ccc(F)nc3)cs2)cc1C(F)(F)F` [compound 486, N-(3-(trifluoromethyl)-4-(pentyloxy)phenyl)-4-(6-fluoropyridin-3-yl)thiazol-2-amine]: greater than 6.00; for `CCCCCCCOc1ccc(Nc2nc(-c3ccc(F)nc3)cs2)cc1` [compound 487, 4-(6-fluoropyridin-3-yl)-N-(4-(heptyloxy)phenyl)thiazol-2-amine]: greater than 6.00; for `CCCCCCCCOc1ccc(Nc2nc(-c3ccc(F)nc3)cs2)cc1` [compound 488]: greater than 6.00.
On the same count and under the same terms, next, `CCCCCCCCN(C)c1ccc(Nc2nc(-c3ccc(F)nc3)cs2)cc1C(F)(F)F` [compound 489, 2-(trifluoromethyl)-N^4-(4-(6-fluoropyridin-3-yl)thiazol-2-yl)-N^1-methyl-N^1-octylbenzene-1,4-diamine]: greater than 6.00.
Same read-out and setting: next, `CCCCCCCCc1ccc(Nc2nc(-c3ccc(F)nc3)cs2)cc1` [compound 490, 4-(6-fluoropyridin-3-yl)-N-(4-octylphenyl)thiazol-2-amine]: greater than 6.00; `CCCCCCCCOc1ccc(Nc2nc(Cc3ccccc3)cs2)cn1` [compound 491, N-(4-benzylthiazol-2-yl)-6-(octyloxy)pyridin-3-amine]: 5.00 to 6.00.
For `CCCCCCCCN(C)c1ccc(Nc2nc(Cc3ccccc3)cs2)cc1C(F)(F)F` [compound 492, N^4-(4-benzylthiazol-2-yl)-2-(trifluoromethyl)-N^1-methyl-N^1-octylbenzene-1,4-diamine], the pEC50 is 5.00 to 6.00.
On the same count and under the same terms, the same measure for `CCCCCCCCN(C)c1ccc(Nc2nc(Cc3ccccc3)cs2)cc1` [compound 493, N^1-(4-benzylthiazol-2-yl)-N^4-methyl-N^4-octylbenzene-1,4-diamine]: 5.00 to 6.00.
Same read-out and setting: the same measure for `Fc1ccc(-c2csc(Nc3ccc(OCCCC4CCCC4)c(C(F)(F)F)c3)n2)cc1` [compound 494, N-(4-(3-cyclopentylpropoxy)-3-(trifluoromethyl)phenyl)-4-(4-fluorophenyl)thiazol-2-amine]: greater than 6.00.
Regarding `FC(F)(F)c1cc(Nc2nc(-c3cccnc3)cs2)ccc1OCCCC1CCCC1` [compound 495, N-(4-(3-cyclopentylpropoxy)-3-(trifluoromethyl)phenyl)-4-(pyridin-3-yl)thiazol-2-amine], the pEC50 was greater than 6.00.
Same read-out and setting: the same measure for `Cc1ccc(-c2csc(Nc3ccc(OCCCC4CCCC4)c(C(F)(F)F)c3)n2)cn1` [compound 496, N-(4-(3-cyclopentylpropoxy)-3-(trifluoromethyl)phenyl)-4-(6-methylpyridin-3-yl)thiazol-2-amine]: greater than 6.00; for `CCCCCCCCOc1ccc(Nc2nc(Cc3cccnc3)cs2)cn1` [compound 497, 6-(octyloxy)-N-(4-((pyridin-3-yl)methyl)thiazol-2-yl)pyridin-3-amine]: 5.00 to 6.00; for `CCCCCCCCOc1ccc(Nc2nc(Cc3cccc(F)c3)cs2)cn1` [compound 498, N-(4-(3-fluorobenzyl)thiazol-2-yl)-6-(octyloxy)pyridin-3-amine]: 5.00 to 6.00.
Consider `CCCCCCCCN(C)c1ccc(Nc2nc(Cc3cccc(F)c3)cs2)cc1` [compound 499, N^1-(4-(3-fluorobenzyl)thiazol-2-yl)-N^4-methyl-N^4-octylbenzene-1,4-diamine], for which the pEC50 was 5.00 to 6.00.

The same assay, now with this note: replicon based assay of HCV replication inhibition; Table II; read-out: Activity.
For `CCCCCCCCOc1ccc(Nc2nc(-c3ccc(C(=O)N(C)C)nc3)cs2)cn1` [compound 471, 5-(2-(6-(octyloxy)pyridin-3-ylamino)thiazol-4-yl)-N,N-dimethylpyridine-2-carboxamide], the pEC50 is greater than 6.00.
Same read-out and setting: next, `CCCCCCCCOc1ccc(Nc2nc(-c3cccnc3)cs2)cn1` [compound 472, 6-(octyloxy)-N-(4-(pyridin-3-yl)thiazol-2-yl)pyridin-3-amine]: greater than 6.00.
